From article PMC3241888 (Nature chemical biology, 2011)

Target: T1, Pol δ (Saccharomyces cerevisiae, UniProt P15436)
T1 sequence (P15436 1-1097): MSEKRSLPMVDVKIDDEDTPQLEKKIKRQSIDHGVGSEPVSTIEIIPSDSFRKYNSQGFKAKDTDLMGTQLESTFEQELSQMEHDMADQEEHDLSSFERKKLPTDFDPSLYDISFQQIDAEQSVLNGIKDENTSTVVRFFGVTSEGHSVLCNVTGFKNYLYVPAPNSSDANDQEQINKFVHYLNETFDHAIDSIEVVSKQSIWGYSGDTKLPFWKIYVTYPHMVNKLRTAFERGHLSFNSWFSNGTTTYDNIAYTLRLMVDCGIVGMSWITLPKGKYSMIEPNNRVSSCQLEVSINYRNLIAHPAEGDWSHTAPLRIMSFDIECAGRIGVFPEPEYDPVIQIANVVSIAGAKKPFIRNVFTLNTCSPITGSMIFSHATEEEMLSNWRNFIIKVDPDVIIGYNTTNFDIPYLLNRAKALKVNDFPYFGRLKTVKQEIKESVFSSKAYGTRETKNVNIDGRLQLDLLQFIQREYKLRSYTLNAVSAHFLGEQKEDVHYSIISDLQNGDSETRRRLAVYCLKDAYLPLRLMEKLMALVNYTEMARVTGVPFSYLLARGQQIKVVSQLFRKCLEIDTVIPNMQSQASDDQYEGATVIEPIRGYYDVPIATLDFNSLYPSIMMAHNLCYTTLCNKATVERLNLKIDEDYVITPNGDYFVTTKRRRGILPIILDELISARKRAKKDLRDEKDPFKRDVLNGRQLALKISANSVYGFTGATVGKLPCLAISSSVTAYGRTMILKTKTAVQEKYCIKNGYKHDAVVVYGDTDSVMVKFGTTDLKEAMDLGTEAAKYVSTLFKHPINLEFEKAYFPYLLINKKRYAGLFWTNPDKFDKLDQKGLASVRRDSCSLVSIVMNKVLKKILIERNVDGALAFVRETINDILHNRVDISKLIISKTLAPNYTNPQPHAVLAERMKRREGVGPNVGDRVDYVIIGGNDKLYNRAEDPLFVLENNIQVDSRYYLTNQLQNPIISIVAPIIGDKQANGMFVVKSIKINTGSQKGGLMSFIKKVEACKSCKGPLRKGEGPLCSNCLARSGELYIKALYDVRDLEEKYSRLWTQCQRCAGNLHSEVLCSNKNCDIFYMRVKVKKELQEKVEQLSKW
T1 sequence (P46957 1-487 partner): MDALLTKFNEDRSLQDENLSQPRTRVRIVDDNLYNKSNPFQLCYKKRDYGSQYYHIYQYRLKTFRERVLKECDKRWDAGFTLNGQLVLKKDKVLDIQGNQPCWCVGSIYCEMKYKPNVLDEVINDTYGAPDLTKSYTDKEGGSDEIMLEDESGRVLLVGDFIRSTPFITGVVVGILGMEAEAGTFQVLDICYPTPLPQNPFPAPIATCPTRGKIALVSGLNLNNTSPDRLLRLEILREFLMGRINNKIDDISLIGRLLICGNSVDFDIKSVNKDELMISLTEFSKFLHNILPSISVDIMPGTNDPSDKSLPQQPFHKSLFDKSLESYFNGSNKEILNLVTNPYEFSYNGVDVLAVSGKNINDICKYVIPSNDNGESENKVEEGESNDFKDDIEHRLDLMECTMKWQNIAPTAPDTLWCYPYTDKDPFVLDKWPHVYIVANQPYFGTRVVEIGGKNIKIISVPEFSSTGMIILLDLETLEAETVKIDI
T1 sequence (P47110 1-350 partner): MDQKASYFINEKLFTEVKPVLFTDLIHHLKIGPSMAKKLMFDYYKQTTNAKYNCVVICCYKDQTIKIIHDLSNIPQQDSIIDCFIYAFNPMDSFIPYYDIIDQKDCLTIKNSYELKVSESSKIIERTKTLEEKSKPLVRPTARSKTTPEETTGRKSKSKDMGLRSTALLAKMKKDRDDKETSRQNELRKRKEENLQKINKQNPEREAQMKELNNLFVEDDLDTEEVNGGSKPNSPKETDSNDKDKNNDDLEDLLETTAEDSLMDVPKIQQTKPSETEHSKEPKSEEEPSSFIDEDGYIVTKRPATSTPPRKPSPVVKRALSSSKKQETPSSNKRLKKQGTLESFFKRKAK
Assay: UV-Vis
Type: binding
Conditions: CysB site of Pol3; as isolated from yeast

Q: For `[S]12[Fe]3[S]4[Fe]1[S]1[Fe]2[S]3[Fe]41` [[4Fe-4S] cluster], which “mol non-heme iron and acid-labile sulfide ions per mol Pol δ” value is on record?
A: ~ 4 mol/mol
